Active and inactive are the calls of the source.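 How the source made its calls: active means fitted curve climbs past 10% caspase activation, relative to the positive control, at or below the top valid tested dose; inactive means the rest, including activity in the opposite direction.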
System: not listed separately
Assay: caspase-3/7 activation in A1-2A-tBid MEFs, dose response, orthogonal assay for A1 inhibitor project, cell-based, MEF A1-2A-tBid, luminescence, dry powder, set 2 (AID 504359)
Details: MEF A1-2A-tBid cells, caspase 3/7 luminescence, 3 h; at 35 µM (top of the series)

Structure (SMILES) | caspase activation
Cc1ccc(Sc2cc(=O)n(C)c3ccccc23)cc1 | -7.35% (inactive)
Cc1ccc(Nc2c([N+](=O)[O-])c(=O)oc3ccccc23)cc1 | 1.44% (inactive)
Cc1ccc(Nc2c([N+](=O)[O-])c(=O)n(C)c3ccccc23)cc1 | -0.806% (inactive)
CCOCCCNc1c([N+](=O)[O-])c(=O)n(C)c2ccccc12 | 0.513% (inactive)
O=c1oc2ccccc2c(N2CCCCC2)c1[N+](=O)[O-] | -2.24% (inactive)
Cc1ccc(Sc2c([N+](=O)[O-])c(=O)oc3ccccc23)cc1 | -3.75% (inactive)
O=c1oc2ccccc2c(Nc2cc(Cl)cc(Cl)c2)c1[N+](=O)[O-] | -1.39% (inactive)
O=c1oc2ccccc2c(Cl)c1[N+](=O)[O-] | -6.09% (inactive)
O=c1oc2ccccc2c(Sc2ccccc2)c1[N+](=O)[O-] | -5.14% (inactive)
CN1C(=O)C(C)(C)N(Cc2ccccc2)c2ccccc21 | 0.072% (inactive)
Cn1c(=O)c([N+](=O)[O-])c(Oc2ccccc2)c2ccccc21 | 0.967% (inactive)
CCOC(=O)N1CCN(c2c([N+](=O)[O-])c(=O)n(C)c3ccccc23)CC1 | -0.293% (inactive)
O=C(Oc1cccc(/C=N/Nc2nc(Nc3ccccc3)nc(N3CCOCC3)n2)c1)c1ccco1 | 3.43% (inactive)
Cn1c(=O)c([N+](=O)[O-])c(Nc2ccc(Cl)cc2)c2ccccc21 | -0.562% (inactive)
CCSc1c([N+](=O)[O-])c(=O)oc2ccccc12 | -3.21% (inactive)
C/C1=C/C(=O)O[C@@H]2C[C@@H](CC[C@H](C)/C=C\CC1)O[C@@](O)(C1CSC(=O)N1)C2 (stereo partly specified) | 3.32% (inactive)

System: MEF A1-2A-tBid cells, caspase 3/7 luminescence, 3 h
Assay: as above
Details: not given

Structure (SMILES) | AC10 [µM]
Cc1ccc(Sc2c([N+](=O)[O-])c(=O)n(C)c3ccccc23)cc1 | 7.45
Cc1ccc(Sc2c([N+](=O)[O-])cnc3ccccc23)cc1 | 5.49
Cn1c(=O)c([N+](=O)[O-])c(-n2cnc3ccccc32)c2ccccc21 | 24.8
Cn1c(=O)c([N+](=O)[O-])c(Cl)c2ccccc21 | 0.716
O=[N+]([O-])c1cnc2ccccc2c1Sc1ccccc1 | 7.93
